Measurements as given in patent publication US10767151B2, “Device for cell culture” (priority 2008, dated 2020).
Entries after “also recorded” stand apart in the source; their conditions may differ. Where a SMILES comes first, the peptide text is derived from it. [ ]: non-standard residue; d: D form. The star is where a group is joined. Nle = CCCC[C@H](N)C(=O)O; Cbz = O=C(OCc1ccccc1)*; CH2F = FC*

How the values were obtained:
Assay type in all cases: cell-based, mouse
cortical axons = assay: Axotomy of the central portion of cortical axons in three-chamber device D4, Wallerian degeneration model (Example 15)
Experimental: The microfluidic device represented in image 4a of FIG. 20 is similar to that described previously with reference to FIGS. 1C to 1H and comprises three chambers. It is device D4. This makes it possible to apply molecules of interest on the central portion of the axons, for example a detergent (Triton X100, 0.1%), applied for 1 min. […] In this example, although the cortical axons sectioned in their central portion are still intact after one hour of section, they degenerate after 4 h. This constitutes a model of Wallerian degeneration (degeneration of the distal portion of axons). The potential of compounds which protect against this effect can be evaluated by applying them specifically in one or more of the chambers of the device. […] This experiment was carried out with device D4. The experiment, carried out on a corticostriatal network, makes it possible to illustrate that it is possible to objectivize a phenomenon of synaptic degeneration after application of a stress at the cortical level (in this case axotomy) (disappearance of Vglu-1 labeling which is specific for cortical presynaptic structures). […] FIGS. 20 and 21 illustrate the consequences of the axotomy of cortical axons of a corticostriatal network. […]

striatal erk kinase = assay: Phosphorylation of striatal erk kinase in corticostriatal network, device D3 (Example 13); conditions: after seven days in vitro; cortical depolarization
Experimental: FIG. 18 represents microfluidic chambers separated by asymmetrical microchannels.
This experiment was carried out with the device D3.
The cortical neurons are seeded on the left and the striatal neurons on the right. After seven days in vitro, the cortical axons establish connections with the striatal neurons (β3-tubulin in green, striatal neurons in red (MAP2)).

Cerebellar neurons = assay: Axonal degeneration of cerebellar neurons after somatic staurosporin, microfluidic device D1 (Example 14); conditions: for axon-protecting effect against staurosporin-induced axonal degeneration: compound applied concomitantly to the axons only, staurosporin on the somas
Experimental: Cerebellar neurons are seeded into microfluidic devices according to the invention and treated with an apoptosis inducer (1 μM staurosporin, STS) at the somatic level. This induces axonal degeneration in the distal chamber (Phi). Apoptosis-blocking compounds (zVAD) or proteases of calpain type (Cal-Inh) are applied specifically to the axons (and not to the somas). The “axon-protecting” effect is quantified on the graph on the right in FIG. 19. Devices D1 are used. Neurons (in this case from the cerebellum) are seeded and their axons pass through the asymmetrical microchannels so as to reach the second chamber (or the 3rd if the device has three compartments). A stress (in this case staurosporin, which is a pro-apoptotic agent) is applied to the soma of the neurons. […] The effect of “axon-protecting” molecules can thus be evaluated. FIG. 19 illustrates the start of axonal degeneration induced by the application of a pro-apoptotic stress applied to the somato-dendritic compartment of neurons. This causes the propagation of a destructive signal in the axon, which then degenerates early, before the cell soma.

cortical neurons = assay: Saponin axotomy of cortical neurons in three-chamber device, axonal fragmentation by tubulin labeling (Example 20); conditions: for occurrence of axon fragmentation after axotomy: 50 μM applied to the distal segments of axons at the time of axotomy, FIG. 29; for protective effect against axon fragmentation after axotomy: applied 24 h before axotomy (not shown)
Experimental: The cortices of 14-day mouse embryos are dissected and dissociated as has already been described elsewhere, for example Eur J Neurosci 2001 June; 13(11): 2037-46 William S et al. The neurons are seeded into the somatic chamber (also called compartment) of the circuits at a density of 10^5 cells/cm^2. In this manner, about 4×10^4 neurons are seeded into the somatic chamber. The culture medium consists of DMEM containing 4.5 g/l D-glucose and pyruvate (Invitrogen, Carlsbad, USA), supplemented with 10% of FCS (fetal calf serum; PAA Laboratories, Pasching, Germany) and with 2% of B27 (Invitrogen). The medium is replaced every three days until the beginning of the experiment, and the cultures are conserved in an incubator at 37° C. and 5% CO2. The experiments are carried out after 7 to 8 days of culture in vitro. The calpain inhibitor N-acetyl-Leu-Leu-Nle-CHO (ALLN; Calbiochem), the general caspase inhibitor Z—V-A-D-fluoromethyl ketone (z-VAD; R1D Systems, Minneapolis, USA) and β-nicotinamide adenine dinucleotide hydrate (βNAD; Sigma) are introduced into the culture medium at the beginning of the experiments.
In order to carry out the axotomy, a flow of 15 μl of medium containing 0.1% of saponin is produced for 2 minutes in the central chamber. In order to avoid the flow of detergent entering the microchannels, an overpressure is maintained in the somatic and axonal chambers throughout the experiment. After 2 minutes of flow, the medium containing the saponin is removed and the central macrochannel is rinsed with culture medium for 5 min. Fresh medium is then added to this channel.
After a given culture time (optionally according to the moment at which the axotomy experiment is carried out), the neuron cultures are fixed with a 4% paraformaldehyde solution (Sigma) so as to undergo analysis by immunocytochemistry. The circuits are labeled by immunofluorescence with an anti-MAP2 antibody (rabbit IgG, 1:3000; Chemicon, Temecula, USA), and an anti-β-III-tubulin monoclonal antibody (mouse IgG, 1:3000; Sigma) for labeling the cytoskeletal proteins. The circuits are fluorescently labeled with Hoechst 33342 (1:25000; Sigma) for labeling the nucleus. In a separate experiment, the circuits were also labeled by immunofluorescence with an anti-glial fibrillary acidic protein antibody (GFAP, rabbit IgG, 1:5000; DakoCytomation, Glostrup, Denmark) which makes it possible to label the astrocytes. A part of the cultures was subjected to fixing and extraction. This procedure makes it possible to eliminate the tubulin free in the cytoplasm while at the same time fixing the microtubules. These cultures were labeled by immunofluorescence with an anti-a-tubulin monoclonal antibody conjugated to the fluorophore FITC (Sigma) and labeled with phalloidin linked to an Alexa Fluor 555 (Invitrogen) so as to reveal the microtubules and the actin cytoskeleton, respectively. The images were acquired using an inverted epifluorescence microscope (Zeiss, Goettingen, Germany) equipped with a CoolSnap HQ2 camera (Roper Scientific, Ottobrunn, Germany) and using the micro-manager acquisition software (http://www.micro-manager.org).
The axonal degeneration is estimated by comparing the type of tubulin labeling of fragmented axons or of intact axons. Good survival, in culture, of the cortical neurons is dependent on the initial seeding density, which must be high. Consequently, a large number of cortical axons invade the central and distal chambers. Moreover, since the cortical axons have many branches, the immunohistochemical analysis of the axonal tubulin in the axonal chambers is therefore complex, and the axons are difficult to individualize. The proportion of axon entering the central chamber and emerging in the distal axonal chamber was estimated by calculating a ratio of intensity of overall fluorescence of the b3-tubulin labeling of identical surface areas captured in the central chamber and the distal axonal chamber. […]

corticostriatal network = assay: Synaptic degeneration on a corticostriatal network after cortical axotomy, Vglut-1 presynaptic structures (Example 16); conditions: NAD added to striatal compartment at the time of axotomy / pretreated
Experimental: Photographs a and b of FIG. 21 represent cortical, central and striatal chambers of reconstructed corticostriatal networks in three-chamber microfluidic devices.
The neurons were labeled on MAP2 (blue), β3-tubulin (green) and Vglut-1 (red).
Photograph c is representative of cortical-presynaptic structures (Vglut1, red) attached to striatable dendrites (MAP2, blue) after 1, 2, 4 and 6 hours of axotomy or controlled culture or culture pretreated with NAD.
Photograph d illustrates the quantification of a presynaptic cortical structure attached to MAP2-positive striatal dendrites after cortical axotomy.
This experiment was carried out with device D4. The experiment, carried out on a corticostriatal network, makes it possible to illustrate that it is possible to objectivize a phenomenon of synaptic degeneration after application of a stress at the cortical level (in this case axotomy) (disappearance of Vglu-1 labeling which is specific for cortical presynaptic structures). […] FIGS. 20 and 21 illustrate the consequences of the axotomy of cortical axons of a corticostriatal network. This axotomy causes the propagation of a signal resulting in rapid degeneration of the presynaptic compartment (FIG. 21) of the corticostriatal junction, and then in degeneration of the cortical axons (FIG. 20).

## Triton X100
Cortical axons; Triton X100 0.1% applied for 1 min on central portion of the axons
  section of axons by detergent: immediate section of the central portion of the axons

## [Cl-].[K+] [KCl]
Striatal erk kinase
  phosphorylation of the striatal erk kinase: triggers phosphorylation

## CN[C@@H]1C[C@H]2O[C@@](C)([C@@H]1OC)n1c3ccccc3c3c4c(c5c6ccccc6n2c5c31)C(=O)NC4 [staurosporin]
Cerebellar neurons; 1 μM staurosporin at the somatic level, axons in distal chamber, in 24 h
  axon degeneration induced by stress applied to the soma: induces axon degeneration

## saponin
Cortical neurons; 0.1% saponin, flow for 2 minutes in the central compartment
  destruction of axon segments by detergent flow: immediate destruction of the axon segments contained in the central compartment

## C[C@]12N[C@H](Cc3ccccc31)c1ccccc12 [MK801]
Striatal erk kinase
  phosphorylation of the striatal erk kinase: inhibition

## CCCC[C@@H](C=O)NC(=O)[C@H](CC(C)C)NC(=O)[C@H](CC(C)C)NC(C)=O [ALLN, N-acetyl-Leu-Leu-Nle-CHO] (Ac-Leu-Leu-[Nle]-aldehyde)
Cortical neurons
  occurrence of axon fragmentation after axotomy: does not delay the occurrence of axon fragmentation
  protective effect against axon fragmentation after axotomy: absence of protective effect

## COC(=O)C[C@H](NC(=O)[C@H](C)NC(=O)[C@@H](NC(=O)OCc1ccccc1)C(C)C)C(=O)CF [zVAD] (Cbz-Val-Ala-Asp(OMe)-CH2F)
Cerebellar neurons
  axon-protecting effect against staurosporin-induced axonal degeneration: prevents this degeneration; also recorded: delays this axonal degeneration
Cortical neurons
  occurrence of axon fragmentation after axotomy: does not delay the occurrence of axon fragmentation
  protective effect against axon fragmentation after axotomy: absence of protective effect

## NC(=O)c1ccc[n+]([C@@H]2O[C@H](COP(=O)([O-])OP(=O)(O)OC[C@H]3O[C@@H](n4cnc5c(N)ncnc54)[C@H](O)[C@@H]3O)[C@@H](O)[C@H]2O)c1 [NAD, β-nicotinamide adenine dinucleotide hydrate]
Cerebellar neurons
  axon-protecting effect against staurosporin-induced axonal degeneration: delays this axonal degeneration
Cortical axons; after axotomy, NAD added to the striatal compartment at the time of axotomy, FIG. 20, hydrate
  degeneration of transected cortical axons (axon-protecting effect): axon-protecting effect; also recorded: delays
Corticostriatal network; FIG. 21, hydrate
  presynaptic degeneration of the corticostriatal junction (Vglut-1): delays presynaptic degeneration
Corticostriatal network; FIG. 21, listed as NAD+, hydrate
  presynaptic degeneration of the corticostriatal junction (Vglut-1): Delays Deconnection
Cortical neurons; 5 mM pretreatment 24 h before axotomy, 8 h after axotomy (all control axons fragmented)
  degeneration of cut axons: do not exhibit any sign of degeneration
Cortical neurons; 5 mM pretreatment 24 h before axotomy, 24 hours after axotomy
  persistence of axon protection: protection disappears
Cortical neurons; neurons pretreated 24 h before axotomy with 5 mM
  signs of axonal degeneration after axotomy: delayed
